The record followed here is patent publication US12673918B2, “Small molecule RPN13 inhibitors with antitumor properties” (The Johns Hopkins University, priority 2019, dated 2026).

Molecules are shown by their SMILES. Like-named read-outs stand apart in the source and are kept apart here.

Assay [1] has as its system HeLa cells. The assay can be described thus: XTT cytotoxicity assay, HeLa. It is filed as cell-based, human. From the text:
(§1) The impact of substituents of the aromatic ring on the potency of molecules was also examined. The presence of either an electron withdrawing group (EWG) or an electron donating group (EDG) influences the reactivity of a Michael acceptor towards the target protein but can also impact specificity/selectivity.

Assay [2] deals with SKOV3 cells. Description: XTT cytotoxicity assay, SKOV3. It is filed as cell-based, human.
From the text: as §1

The mark [3] stands for this setting: Table 1, XTT assay, read-out: IC50 HeLa.
Setting [4] is: Table 1, XTT assay, read-out: IC50 SKOV3.
Where [5] appears, read: Table 2, read-out: IC50 HeLa (bridge compounds).
[6] abbreviates: Table 2, read-out: IC50 SKOV3 (bridge compounds).

In the case of `Cl.NCCCCC(N)C(=O)NC(Cc1ccccc1)C(=O)N1CC(=Cc2ccc(Cl)c(Cl)c2)C(=O)C(=Cc2ccc(Cl)c(Cl)c2)C1` (stereo not shown) [RA310], the IC50 in assay [1] (setting [3]) is 543 nM; in assay [2] (setting [4]), 446 nM. Besides, the “fold decreased potency compared to RA190” value in assay [1] (cytotoxicity, Table 1 cell lines (HeLa, SKOV3)) is 3 fold.

In the case of `O=C1C(=Cc2ccc(Cl)c(Cl)c2)C2CCC(N2)C1=Cc1ccc(Cl)c(Cl)c1` [RA329], the IC50 in assay [1] (setting [5]) came to 407 nM; in assay [2] (setting [6]), 471 nM.

For the molecule `O=C1C(=Cc2ccccc2)C2CCC(N2)C1=Cc1ccccc1` [RA330], the half-inhibitory concentration (IC50) in assay [1] (setting [5]) worked out at 239 nM; in assay [2] (setting [6]), 278 nM.

With `O=C1C(=Cc2ccc([N+](=O)[O-])cc2)C2CCC(N2)C1=Cc1ccc([N+](=O)[O-])cc1` [RA331], the 50% inhibitory concentration (IC50) in assay [1] (setting [5]) stood at 236 nM; in assay [2] (setting [6]), 301 nM.

Regarding `O=C1C(=Cc2ccc(-c3cccnc3)cc2)C2CCC(N2)C1=Cc1ccc(-c2cccnc2)cc1` [RA332], the results for the IC50 in assay [1] (setting [5]) and in assay [2] (setting [6]) were 243 nM and 376 nM, respectively.

Regarding `C=CC(=O)N1C2CCC1C(=Cc1ccc([N+](=O)[O-])cc1)C(=O)C2=Cc1ccc([N+](=O)[O-])cc1` [RA333], the IC50 in assay [1] (setting [5]) stood at 112 nM; in assay [2] (setting [6]), 167 nM.

Take `C=CC(=O)N1C2CCC1C(=Cc1ccc(Cl)c(Cl)c1)C(=O)C2=Cc1ccc(Cl)c(Cl)c1` [RA334]: the IC50 worked out at 101 nM in assay [1] (setting [5]) and 186 nM in assay [2] (setting [6]).

Regarding `CC(=O)N1C2CCC1C(=Cc1ccc(Cl)c(Cl)c1)C(=O)C2=Cc1ccc(Cl)c(Cl)c1` [RA335], the IC50 came to 161 nM in assay [1] (setting [5]) and 251 nM in assay [2] (setting [6]).

Turning to `C=CC(=O)N1C2CCC1C(=Cc1ccccc1)C(=O)C2=Cc1ccccc1` [RA336], the results for the IC50 in assay [1] (setting [5]) and in assay [2] (setting [6]) were 146 nM and 185 nM, respectively.

Regarding `CC(=O)N1C2CCC1C(=Cc1ccccc1)C(=O)C2=Cc1ccccc1` [RA337], the IC50 in assay [1] (setting [5]) was found to be 186 nM; in assay [2] (setting [6]), 231 nM.

With `C=CC(=O)NC(Cc1ccccc1)C(=O)N1C2CCC1C(=Cc1ccc(Cl)c(Cl)c1)C(=O)C2=Cc1ccc(Cl)c(Cl)c1` (stereo not shown) [RA339], the results for the IC50 in assay [1] (setting [5]) and in assay [2] (setting [6]) were 46 nM and 54 nM, respectively.

As to `C=CC(=O)N1C2CCC1C(=Cc1ccc(-c3cccnc3)cc1)C(=O)C2=Cc1ccc(-c2cccnc2)cc1` [RA340], the IC50 worked out at 184 nM in assay [1] (setting [5]) and 259 nM in assay [2] (setting [6]).

For `O=C(CCl)N[C@@H](Cc1ccccc1)C(=O)N1C/C(=C\c2ccc(Cl)c(Cl)c2)C(=O)/C(=C/c2ccc(Cl)c(Cl)c2)C1` [RA371], the IC50 in assay [1] (Homo sapiens, HeLa, Table 1, XTT assay, read-out: IC50 HeLa) came out at 44 nM; in assay [2] (Homo sapiens, SK-OV-3, Table 1, XTT assay, read-out: IC50 SKOV3) it was 47 nM.

`NC(Cc1ccccc1)C(=O)N1CC(=Cc2ccc(Cl)cc2)C(=O)C(=Cc2ccc(Cl)cc2)C1` (stereo not shown) [RA-4Cl]: the IC50 stood at 71 nM in assay [1] (setting [3]) and 83 nM in assay [2] (setting [4]).

As to `O=C(CCl)NC(Cc1ccccc1)C(=O)N1CC(=Cc2csc(Br)c2)C(=O)C(=Cc2csc(Br)c2)C1` (stereo not shown) [RA-BTPCA], the IC50 in assay [1] (setting [3]) was 132 nM; in assay [2] (setting [4]), 189 nM.

Regarding `NC(Cc1ccccc1)C(=O)N1CC(=Cc2ccc(Cl)c(C(F)(F)F)c2)C(=O)C(=Cc2ccc(Cl)c(C(F)(F)F)c2)C1` (stereo not shown) [RA-CTFP], the IC50 in assay [1] (setting [3]) came out at 56 nM; in assay [2] (setting [4]), 81 nM.

`O=C1C(=Cc2ccc(Cl)c(C(F)(F)F)c2)CNCC1=Cc1ccc(Cl)c(C(F)(F)F)c1` [RA-CTF]: the results for the IC50 in assay [1] (setting [3]) and in assay [2] (setting [4]) were 324 nM and 457 nM, respectively.

Consider `O=C1C(=CC=Cc2ccccc2)CNCC1=CC=Cc1ccccc1` [RA-Cinn], for which the concentration for half-maximal inhibition (IC50) in assay [1] (setting [3]) and in assay [2] (setting [4]) was more than 5000 nM each time.

Turning to `COc1cc(C=C2CN(C(=O)C(N)Cc3ccccc3)CC(=Cc3cc(OC)c(OC)c(OC)c3)C2=O)cc(OC)c1OC` (stereo not shown) [RA-TMP], the IC50 in assay [1] (setting [3]) is 78 nM; in assay [2] (setting [4]), 125 nM.

As for `NC(Cc1ccccc1)C(=O)N1CC(=Cc2ccc([N+](=O)[O-])cc2)C(=O)C(=Cc2ccc(Cl)c(Cl)c2)C1` (stereo not shown) [RA-asyP], the concentration for half-maximal inhibition (IC50) was 48 nM in assay [1] (setting [3]) and 62 nM in assay [2] (setting [4]).

For the molecule `O=C1C(=Cc2ccc([N+](=O)[O-])cc2)CNCC1=Cc1ccc(Cl)c(Cl)c1` [RA-asy], the IC50 came to 312 nM in assay [1] (setting [3]) and 398 nM in assay [2] (setting [4]).
